In this series the test system is human apolipoprotein B mRNA. In words: Inhibition of human apolipoprotein B mRNA levels in HepG2 cells, quantitative real-time PCR. The format is cell-based. The conditions noted are these: averages from two experiments; for % INHIB (inhibition of human apolipoprotein B mRNA levels): HepG2 cells treated with 150 nM of compound, quantitative real-time PCR; for % INHIB: Table 12, HepG2 cells, 150 nM. The gist of the method: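 Apolipoprotein B transcript was quantified by one-step TaqMan RT-PCR, normalized to GAPDH or RiboGreen RNA, and expressed as percent inhibition against an untreated-sample standard curve. HepG2 cells were harvested 16-24 h after oligonucleotide exposure, which was delivered with 3.75 μg/mL Lipofectin over 4-7 h at 80% confluency.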

This is an account of results in patent US7803930B2, “Antisense modulation of apolipoprotein B-expression” (Isis Pharmaceuticals, Inc., priority 2002, dated 2010).

In the oligonucleotide strings, read from the 5' end, every base follows the letter of its sugar. An asterisk marks phosphorothioate; unmarked linkages are phosphodiester. Other units and linkages are bracketed, terminal groups are in braces. A string of capitals states the bases alone. e = 2'-O-(2-methoxyethyl) (MOE); [5mC] = 5-methylcytosine; d = 2'-deoxy (DNA)

Turning to “281631 (antisense eT*e[5mC]*eA*eA*e[5mC]*dG*dG*d[5mC]*dA*dT*d[5mC]*dT*d[5mC]*dT*d[5mC]*eA*eT*e[5mC]*eT*e[5mC]) [compound 281631]”, the “% INHIB (inhibition of human apolipoprotein B mRNA levels)” value is reported as 88%.
On the same count and under the same terms, in the case of “281632 (antisense eT*eG*eA*eT*eA*dG*dT*dG*d[5mC]*dT*d[5mC]*dA*dT*d[5mC]*dA*eA*eG*eA*e[5mC]*eT) [compound 281632]” it was 75%; in that of “281633 (antisense eG*eA*eT*eT*e[5mC]*dT*dG*dA*dT*dT*dT*dG*dG*dT*dA*e[5mC]*eT*eT*eA*eG) [compound 281633]”, 73%.
Still for that read-out and setting: in the case of “281634 (antisense e[5mC]*eT*e[5mC]*eT*e[5mC]*dG*dA*dT*dT*dA*dA*d[5mC]*dT*d[5mC]*dA*eT*eG*eG*eA*e[5mC]) [compound 281634]” it was 81%.
Regarding “281635 (antisense eA*eT*eA*e[5mC]*eA*d[5mC]*dT*dG*d[5mC]*dA*dA*d[5mC]*dT*dG*dT*eG*eG*e[5mC]*e[5mC]*eT) [compound 281635]”, the “% INHIB (inhibition of human apolipoprotein B mRNA levels)” value is 89%.
For the substance “281636 (antisense eG*e[5mC]*eA*eA*eG*dA*dG*dT*d[5mC]*d[5mC]*dA*d[5mC]*d[5mC]*dA*dA*eT*e[5mC]*eA*eG*eA) [compound 281636]”, the “% INHIB (inhibition of human apolipoprotein B mRNA levels)” value came out at 68%.
For the substance “281637 (antisense eA*eG*eA*eG*e[5mC]*d[5mC]*dT*dG*dA*dA*dG*dA*d[5mC]*dT*dG*eA*e[5mC]*eT*eT*e[5mC]) [compound 281637]”, the “% INHIB (inhibition of human apolipoprotein B mRNA levels)” value is recorded as 74%.
Still for that read-out and setting: in the case of “281638 (antisense eT*e[5mC]*e[5mC]*e[5mC]*eT*d[5mC]*dA*dT*d[5mC]*dT*dG*dA*dG*dA*dA*eT*e[5mC]*eT*eG*eG) [compound 281638]” it was 66%.
“281639 (antisense eG*eA*e[5mC]*eG*eT*d[5mC]*dA*dG*dA*dA*d[5mC]*d[5mC]*dT*dA*dT*eG*eA*eT*eG*eG) [compound 281639]”: the “% INHIB” value was found to be 38%.
For “281640 (e[5mC]*eA*eG*eT*eG*d[5mC]*dA*dT*d[5mC]*dA*dA*dT*dG*dA*d[5mC]*eA*eG*eA*eT*eG; antisense) [compound 281640]”, the “% INHIB (inhibition of human apolipoprotein B mRNA levels)” value was determined as 87%.
Consider “281641 (e[5mC]*e[5mC]*eG*eA*eA*d[5mC]*d[5mC]*d[5mC]*dT*dT*dG*dA*d[5mC]*dA*dT*e[5mC]*eT*e[5mC]*e[5mC]*eT; antisense) [compound 281641]”, for which the “% INHIB (inhibition of human apolipoprotein B mRNA levels)” value is reported as 72%.
Take “281642 (eG*e[5mC]*e[5mC]*eT*e[5mC]*dA*d[5mC]*dT*dA*dG*d[5mC]*dA*dA*dT*dA*eG*eT*eT*e[5mC]*e[5mC]; antisense) [compound 281642]”: the “% INHIB (inhibition of human apolipoprotein B mRNA levels)” value was found to be 59%.
In the case of “281643 (eG*eA*e[5mC]*eA*eT*dT*dT*dG*d[5mC]*d[5mC]*dA*dT*dG*dG*dA*eG*eA*eG*eA*eG; antisense) [compound 281643]”, the “% INHIB (inhibition of human apolipoprotein B mRNA levels)” value is 61%.
Same read-out and setting: for “281644 (e[5mC]*eT*eG*eT*e[5mC]*dT*d[5mC]*d[5mC]*dT*dA*d[5mC]*d[5mC]*dA*dA*dT*eG*e[5mC]*eT*eG*eG; antisense) [compound 281644]” the value was 26%.
The same measure, in the same setting: for “281645 (eT*e[5mC]*eT*eG*e[5mC]*dA*d[5mC]*dT*dG*dA*dA*dG*dT*d[5mC]*dA*e[5mC]*eG*eG*eT*eG; antisense) [compound 281645]” the value was 78%; for “281646 (eT*e[5mC]*e[5mC]*e[5mC]*eG*dG*dA*d[5mC]*d[5mC]*d[5mC]*dT*d[5mC]*dA*dA*d[5mC]*eT*e[5mC]*eA*eG*eT; antisense) [compound 281646]”, 76%.
As for “281647 (eT*eG*eA*eG*eT*dG*dA*dG*dT*d[5mC]*dA*dA*dT*d[5mC]*dA*eG*e[5mC]*eT*eT*e[5mC]) [compound 281647]”, the “% INHIB” value was determined as 73%.
With “281648 (eG*e[5mC]*eA*eG*eG*dT*d[5mC]*d[5mC]*dA*dG*dT*dT*d[5mC]*dA*dT*eA*eT*eG*eT*eG; antisense) [compound 281648]”, the “% INHIB (inhibition of human apolipoprotein B mRNA levels)” value is 81%.
Regarding “281649 (eG*e[5mC]*e[5mC]*eA*eT*d[5mC]*d[5mC]*dT*dT*d[5mC]*dT*dG*dA*dG*dT*eT*e[5mC]*eA*eG*eA; antisense) [compound 281649]”, the “% INHIB (inhibition of human apolipoprotein B mRNA levels)” value stood at 76%.
Same read-out and setting: for “301013 (e[5mC]*e[5mC]*e[5mC]*e[5mC]*eG*d[5mC]*dA*dG*dG*dT*d[5mC]*d[5mC]*d[5mC]*dG*dG*eT*eG*eG*eG*eA; antisense) [compound 301013]” the value was 82%; for “301015 (e[5mC]*eA*eA*e[5mC]*e[5mC]*dG*dA*dG*dA*dA*dG*dG*dG*d[5mC]*dA*e[5mC]*eT*e[5mC]*eA*eG; antisense) [compound 301015]”, 53%.
“301016 (e[5mC]*e[5mC]*eT*e[5mC]*eA*dG*d[5mC]*dG*dG*d[5mC]*dA*dG*d[5mC]*dA*dA*e[5mC]*e[5mC]*eG*eA*eG; antisense) [compound 301016]”: the “% INHIB (inhibition of human apolipoprotein B mRNA levels)” value was 62%.
For “301017 (eT*e[5mC]*e[5mC]*eT*e[5mC]*dA*dG*d[5mC]*dG*dG*d[5mC]*dA*dG*d[5mC]*dA*eA*e[5mC]*e[5mC]*eG*eA; antisense) [compound 301017]”, the “% INHIB (inhibition of human apolipoprotein B mRNA levels)” value came to 47%.
As for “301018 (e[5mC]*eT*e[5mC]*e[5mC]*eT*d[5mC]*dA*dG*d[5mC]*dG*dG*d[5mC]*dA*dG*d[5mC]*eA*eA*e[5mC]*e[5mC]*eG; antisense) [compound 301018]”, the “% INHIB (inhibition of human apolipoprotein B mRNA levels)” value turned out to be 45%.
Turning to “301019 (eG*eG*e[5mC]*eT*e[5mC]*d[5mC]*dT*d[5mC]*dA*dG*d[5mC]*dG*dG*d[5mC]*dA*eG*e[5mC]*eA*eA*e[5mC]; antisense) [compound 301019]”, the “% INHIB (inhibition of human apolipoprotein B mRNA levels)” value is reported as 70%.
On the same count and under the same terms, in the case of “301020 (eG*eG*e[5mC]*eG*eG*dG*d[5mC]*dT*d[5mC]*d[5mC]*dT*d[5mC]*dA*dG*d[5mC]*eG*eG*e[5mC]*eA*eG; antisense) [compound 301020]” it was 85%.
Take “301022 (eG*eG*e[5mC]*eG*eG*dG*dT*d[5mC]*d[5mC]*dA*dT*d[5mC]*dG*d[5mC]*d[5mC]*eA*eG*e[5mC]*eT*eG; antisense) [compound 301022]”: the “% INHIB (inhibition of human apolipoprotein B mRNA levels)” value is 69%.
On the same count and under the same terms, in the case of “301023 (eT*eA*eG*eA*eG*dG*dA*dT*dG*dA*dT*dA*dG*dT*dA*eA*eG*eT*eT*e[5mC]; antisense) [compound 301023]” it was 69%; in that of “301024 (eA*eA*eA*eT*eG*dA*dA*dG*dA*dT*dT*dT*d[5mC]*dT*dT*eT*eT*eA*eA*eA; antisense) [compound 301024]”, 5%.
Consider “301025 (eT*eA*eT*eG*eT*dG*dA*dA*dA*dG*dT*dT*d[5mC]*dA*dA*eT*eT*eG*eG*eA; antisense) [compound 301025]”, for which the “% INHIB (inhibition of human apolipoprotein B mRNA levels)” value is on record as 76%.
Still for that read-out and setting: for “301026 (eA*eT*eA*eT*eA*dG*dG*d[5mC]*dA*dG*dT*dT*dT*dG*dA*eA*eT*eT*eT*eT; antisense) [compound 301026]” the value was 57%.
